{"source": "patent US20230002346A1", "about": "“NEW COMPOUNDS AND METHODS” (BenevolentAl Bio Limited, priority 2019, published 2023)", "target": "T1, hERG channel (Homo sapiens, UniProt Q12809)", "T1 construct": "expressed in transfected cells", "T1 sequence (Q12809 whole entry)": "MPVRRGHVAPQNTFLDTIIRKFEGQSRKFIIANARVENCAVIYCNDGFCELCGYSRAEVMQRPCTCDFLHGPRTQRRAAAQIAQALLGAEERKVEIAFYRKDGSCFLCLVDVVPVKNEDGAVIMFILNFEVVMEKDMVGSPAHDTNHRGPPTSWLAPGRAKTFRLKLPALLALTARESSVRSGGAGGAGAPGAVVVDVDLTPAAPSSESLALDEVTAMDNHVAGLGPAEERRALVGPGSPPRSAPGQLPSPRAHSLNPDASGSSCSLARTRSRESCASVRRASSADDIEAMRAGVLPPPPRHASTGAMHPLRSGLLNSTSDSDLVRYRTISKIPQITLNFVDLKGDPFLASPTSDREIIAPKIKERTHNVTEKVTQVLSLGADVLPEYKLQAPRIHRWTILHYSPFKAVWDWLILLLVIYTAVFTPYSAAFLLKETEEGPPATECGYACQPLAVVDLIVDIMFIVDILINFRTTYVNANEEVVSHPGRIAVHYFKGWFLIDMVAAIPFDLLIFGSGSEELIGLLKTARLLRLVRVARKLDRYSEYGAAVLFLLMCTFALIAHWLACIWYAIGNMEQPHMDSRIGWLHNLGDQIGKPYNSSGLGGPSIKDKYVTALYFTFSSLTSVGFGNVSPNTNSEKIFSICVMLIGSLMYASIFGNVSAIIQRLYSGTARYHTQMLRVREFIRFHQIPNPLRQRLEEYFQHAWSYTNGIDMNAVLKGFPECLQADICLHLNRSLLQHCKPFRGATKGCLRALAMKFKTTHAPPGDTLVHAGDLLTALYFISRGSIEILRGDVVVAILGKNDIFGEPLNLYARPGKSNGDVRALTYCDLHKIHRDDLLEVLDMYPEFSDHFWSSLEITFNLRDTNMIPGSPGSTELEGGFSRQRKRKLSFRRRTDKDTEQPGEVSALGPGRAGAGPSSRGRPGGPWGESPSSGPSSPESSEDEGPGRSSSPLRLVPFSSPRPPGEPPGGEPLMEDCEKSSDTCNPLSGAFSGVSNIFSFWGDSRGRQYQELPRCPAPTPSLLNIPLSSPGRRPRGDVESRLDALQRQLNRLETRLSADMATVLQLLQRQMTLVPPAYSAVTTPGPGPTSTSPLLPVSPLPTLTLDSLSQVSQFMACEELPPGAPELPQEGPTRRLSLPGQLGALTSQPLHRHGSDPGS", "test": "hERG assay (QPatch automated patch clamp, CHO cells)", "format": "cell-based", "conditions": "CHO cells expressing hERG, whole-cell patch clamp, 0.003 μM to 10 μM", "summary_of_the_method": "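Whole-cell QPatch recordings at room temperature on CHO cells stably expressing hERG, \"+40/−40\" protocol from −90 mV holding, 0.1 Hz. Eight cumulative concentrations (0.003–10 μM) on one cell after 0.1% DMSO vehicle; tail-current inhibition versus vehicle fitted to four-parameter logistic, Hill slopes 0.5–2.0 accepted; mean of N≥3 cells.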"}
{"smiles": "O=C(Nc1ccc(OC(F)(F)Cl)cc1)c1ccc(=O)n(-c2ccccc2)c1", "note": "[Example 56, N-[4-[Chloro(difluoro)methoxy]phenyl]-6-oxo-1-phenyl-pyridine-3-carboxamide]", "values": [{"measurement": "IC50", "result": "> 10", "unit": "µM"}]}
